# Measurements as given in US12371454B2, “Cyclic peptide compound having Kras inhibitory action” (priority 2019, dated 2025).
# pIC50: −log10 of the molar value. Positions of bridges follow the written chain, without caps; N, C: chain ends. Non-standard residues stand in square brackets, D forms with d. Residues, ends and D or L forms follow the SMILES beside them. *: point of attachment. hPhe(3-Cl-4-CF3) = N[C@@H](CCc1ccc(C(F)(F)F)c(Cl)c1)C(=O)O; hPhe(3-F,4-CF3) = N[C@@H](CCc1ccc(C(F)(F)F)c(F)c1)C(=O)O; 3Oxa8azabicyclo(3.2.1)octane = C1CC2COCC1N2*; NMePhe(4-Cl) = CN[C@@H](Cc1ccc(Cl)cc1)C(=O)O; NMeGly(cPent) = CN[C@H](C(=O)O)C1CCCC1; NMeCha = CN[C@@H](CC1CCCCC1)C(=O)O; NMeAhp(2) = CCCCC[C@H](NC)C(=O)O; NMeChg = CN[C@H](C(=O)O)C1CCCCC1; NMeI = CC[C@H](C)[C@H](NC)C(=O)O; NMeD = CN[C@@H](CC(=O)O)C(=O)O; NMeL = CN[C@@H](CC(C)C)C(=O)O; NMeV = CN[C@H](C(=O)O)C(C)C; d(β3hA) = C[C@@H](N)CC(=O)O; Azetidin(1-yl) = C1CN(*)C1; NMeS = CN[C@@H](CO)C(=O)O; NMeA = CN[C@@H](C)C(=O)O; Piperidide = C1CCN(*)CC1; Pyrrolidide = C1CCN(*)C1; Ac5c = NC1(C(=O)O)CCCC1; Aze = O=C(O)[C@@H]1CCN1; NEtG = CCNCC(=O)O; Sar = CNCC(=O)O; Propyl = CCC*
# System: Human pancreatic cancer cell line AsPC-1
# Test: Measurement of AsPC-1 cell growth inhibition (AsPC-1 CGI)
# Format: cell-based
# Conditions: 96 h
# Experimental: Measurement of AsPC-1 Cell Growth Inhibition (AsPC-1 CGI)
# Test compounds were serially diluted with dimethyl sulfoxide, and 200 nL was then dispensed to a U-bottom 96-well plate using Labcyte Echo. Human pancreatic cancer cell line AsPC-1 was suspended in RPMI-1640 medium supplemented with 15% fetal bovine serum to prepare a cell suspension at 1000 cells/100 μL. The cell suspension was dispensed to a plate containing a test compound at 100 μL per well and incubated at 37° C. in a 5% carbon dioxide gas incubator. 96 hours later, 80 μL of CellTiter-Glo (Promega) was added to each well and […] was measured.
row,Structure (SMILES),pIC50
1,CC[C@H](C)[C@@H]1NC(=O)[C@H](CC(C)C)N(C)C(=O)C[C@@H](C(=O)N2CCCCC2)N(C)C(=O)[C@H](C2CCCCC2)N(C)C(=O)C2(CCCC2)NC(=O)CN(CC)C(=O)[C@H](CCc2ccc(C(F)(F)F)c(Cl)c2)NC(=O)CN(C)C(=O)[C@H](CC2CCCCC2)N(C)C(=O)CN(C)C(=O)CN(C)C1=O [Compound 160] ([NMeL]I[Sar][Sar][NMeCha][Sar][hPhe(3-Cl-4-CF3)][NEtG][Ac5c][NMeChg][NMeD]-Piperidide; lactam N-11),7.00 to 7.30
2,CCCCC[C@H]1C(=O)N[C@@H]([C@@H](C)CC)C(=O)N[C@@H](C)C(=O)N2CC[C@H]2C(=O)N(C)[C@@H](COCCC)C(=O)N(C)CC(=O)N[C@@H](CCc2ccc(C(F)(F)F)c(Cl)c2)C(=O)N2CCC[C@H]2C(=O)NC2(CCCC2)C(=O)N(C)[C@@H](C2CCCC2)C(=O)N(C)[C@H](C(=O)N2C3CCC2COC3)CC(=O)N1C [Compound 163] ([NMeAhp(2)]IA[Aze][NMeS](Propyl)[Sar][hPhe(3-Cl-4-CF3)]P[Ac5c][NMeGly(cPent)][NMeD]-{3Oxa8azabicyclo(3.2.1)octane}; lactam N-11),7.00 to 7.30
3,CC[C@H](C)[C@@H]1NC(=O)[C@H](CC(C)C)N(C)C(=O)C[C@@H](C(=O)N2CCCCC2)N(C)C(=O)[C@H](C2CCCC2)N(C)C(=O)C2(CCCC2)NC(=O)[C@@H]2CCCN2C(=O)[C@H](CCc2ccc(C(F)(F)F)c(Cl)c2)NC(=O)CN(C)C(=O)[C@H](C2CCCC2)N(C)C(=O)[C@@H]2CCN2C(=O)[C@H](C)N(C)C1=O [Compound 182] ([NMeL]I[NMeA][Aze][NMeGly(cPent)][Sar][hPhe(3-Cl-4-CF3)]P[Ac5c][NMeGly(cPent)][NMeD]-Piperidide; lactam N-11),7.30 to 7.70
4,CC[C@H](C)[C@@H]1NC(=O)[C@H](CC(C)C)N(C)C(=O)C[C@@H](C(=O)N2CCCC2)N(C)C(=O)[C@H](C2CCCC2)N(C)C(=O)C2(CCCC2)NC(=O)[C@@H]2CCCN2C(=O)[C@H](CCc2ccc(C(F)(F)F)c(Cl)c2)NC(=O)CN(C)C(=O)[C@H](C2CCCC2)N(C)C(=O)[C@@H]2CCN2C(=O)[C@H](C)N(C)C1=O [Compound 201] ([NMeL]I[NMeA][Aze][NMeGly(cPent)][Sar][hPhe(3-Cl-4-CF3)]P[Ac5c][NMeGly(cPent)][NMeD]-Pyrrolidide; lactam N-11),7.30 to 7.70
5,CC[C@H](C)[C@@H]1NC(=O)[C@H](CC(C)C)N(C)C(=O)C[C@@H](C)NC(=O)[C@H](C(C)C)N(C)C(=O)C2(CCCC2)NC(=O)[C@@H]2CCCN2C(=O)[C@H](CCc2ccc(C(F)(F)F)c(Cl)c2)NC(=O)CN(C)C(=O)[C@H](Cc2ccc(Cl)cc2)N(C)C(=O)[C@@H]2CCN2C(=O)CN(C)C1=O [Compound 207] (cyclo([Ac5c][NMeV][d(β3hA)][NMeL]I[Sar][Aze][NMePhe(4-Cl)][Sar][hPhe(3-Cl-4-CF3)]P)),6.30 to 7.00
6,CC[C@H](C)[C@@H]1NC(=O)[C@H](C2CCCC2)N(C)C(=O)C[C@@H](C(=O)N2CCCCC2)N(C)C(=O)[C@H](C(C)C)N(C)C(=O)C2(CCCC2)NC(=O)[C@@H]2CCCN2C(=O)[C@H](CCc2ccc(C(F)(F)F)c(Cl)c2)NC(=O)CN(C)C(=O)[C@H](CC2CCCCC2)N(C)C(=O)[C@@H]2CCN2C(=O)[C@H](C)N(C)C1=O [Compound 225] ([NMeGly(cPent)]I[NMeA][Aze][NMeCha][Sar][hPhe(3-Cl-4-CF3)]P[Ac5c][NMeV][NMeD]-Piperidide; lactam N-11),6.30 to 7.00
7,"CCCOC[C@H]1C(=O)N(C)CC(=O)N[C@@H](CCc2ccc(C(F)(F)F)c(F)c2)C(=O)N2CCC[C@H]2C(=O)NC2(CCCC2)C(=O)N(C)[C@@H]([C@@H](C)CC)C(=O)N(C)[C@H](C(=O)N2CCCCC2)CC(=O)N(C)[C@@H](CC(C)C)C(=O)N[C@@H]([C@@H](C)CC)C(=O)N(C)[C@@H](C)C(=O)N2CC[C@H]2C(=O)N1C [Compound 236] ([NMeL]I[NMeA][Aze][NMeS](Propyl)[Sar][hPhe(3-F,4-CF3)]P[Ac5c][NMeI][NMeD]-Piperidide; lactam N-11)",7.30 to 7.70
8,CC[C@H](C)[C@@H]1NC(=O)[C@H](CC(C)C)N(C)C(=O)C[C@@H](C(=O)N2CCCCC2)N(C)C(=O)[C@H](C2CCCCC2)N(C)C(=O)C2(CCCC2)NC(=O)[C@@H]2CCCN2C(=O)[C@H](CCc2ccc(C(F)(F)F)c(Cl)c2)NC(=O)CN(C)C(=O)[C@H](CC2CCCCC2)N(C)C(=O)[C@@H]2CCN2C(=O)[C@H](C)N(C)C1=O [Compound 249] ([NMeL]I[NMeA][Aze][NMeCha][Sar][hPhe(3-Cl-4-CF3)]P[Ac5c][NMeChg][NMeD]-Piperidide; lactam N-11),6.30 to 7.00
9,CC[C@H](C)[C@@H]1NC(=O)[C@H](CC(C)C)N(C)C(=O)C[C@@H](C(=O)N2CCC2)N(C)C(=O)[C@H](C(C)C)N(C)C(=O)C2(CCCC2)NC(=O)[C@@H]2CCCN2C(=O)[C@H](CCc2ccc(C(F)(F)F)c(Cl)c2)NC(=O)CN(C)C(=O)[C@H](CC2CCCCC2)N(C)C(=O)[C@@H]2CCN2C(=O)[C@H](C)N(C)C1=O [Compound 256] ([NMeL]I[NMeA][Aze][NMeCha][Sar][hPhe(3-Cl-4-CF3)]P[Ac5c][NMeV][NMeD]-{Azetidin(1-yl)}; lactam N-11),6.30 to 7.00
